From PMC4406087, “Remaining challenges in cellular flavin cofactor homeostasis and flavoprotein biogenesis” (Frontiers in Chemistry, 2015)

How the values were obtained:
[1] = target: T1, 6His-hFADS2 (Homo sapiens, UniProt Q8NFF5); test: flavin fluorescence of protein band on SDS-PAGE under UV; assay type: biochemical; details: tightly but not covalently bound, 1 mol FAD per monomer; fluorescence lost on transfer to apo-Me2GlyDH
T1 construct: gene FLAD1; recombinant 6His-tagged cytosolic isoform 2, purified
T1 sequence (Q8NFF5 98-587 limits assumed): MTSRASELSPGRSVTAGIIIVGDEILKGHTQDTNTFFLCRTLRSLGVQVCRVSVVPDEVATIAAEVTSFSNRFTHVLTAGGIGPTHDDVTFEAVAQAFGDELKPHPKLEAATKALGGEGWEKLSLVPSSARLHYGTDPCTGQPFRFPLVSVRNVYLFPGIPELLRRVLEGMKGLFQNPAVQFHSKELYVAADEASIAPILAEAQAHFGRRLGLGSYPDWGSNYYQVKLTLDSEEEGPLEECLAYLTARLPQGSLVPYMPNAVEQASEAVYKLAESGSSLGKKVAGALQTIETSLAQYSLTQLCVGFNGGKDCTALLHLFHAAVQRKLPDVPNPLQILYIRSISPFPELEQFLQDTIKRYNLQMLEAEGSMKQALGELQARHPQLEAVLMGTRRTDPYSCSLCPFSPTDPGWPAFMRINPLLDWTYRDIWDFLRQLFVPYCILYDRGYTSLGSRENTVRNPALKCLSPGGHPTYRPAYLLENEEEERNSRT

[2] = target: T2, 6His-apo-Me2GlyDH (Rattus norvegicus, UniProt Q63342); test: as above; assay type: binding; details: covalent; 20 μM FAD, 50 mM Tris-HCl pH 7.5, 5 mM MgCl2, 5 mM ATP, 0.5% Triton X-100, 37°C; stimulated by rat liver mitochondrial matrix
T2 construct: gene Dmgdh; 6His-tagged, E. coli, purified apo-form
T2 sequence (Q63342 44-857): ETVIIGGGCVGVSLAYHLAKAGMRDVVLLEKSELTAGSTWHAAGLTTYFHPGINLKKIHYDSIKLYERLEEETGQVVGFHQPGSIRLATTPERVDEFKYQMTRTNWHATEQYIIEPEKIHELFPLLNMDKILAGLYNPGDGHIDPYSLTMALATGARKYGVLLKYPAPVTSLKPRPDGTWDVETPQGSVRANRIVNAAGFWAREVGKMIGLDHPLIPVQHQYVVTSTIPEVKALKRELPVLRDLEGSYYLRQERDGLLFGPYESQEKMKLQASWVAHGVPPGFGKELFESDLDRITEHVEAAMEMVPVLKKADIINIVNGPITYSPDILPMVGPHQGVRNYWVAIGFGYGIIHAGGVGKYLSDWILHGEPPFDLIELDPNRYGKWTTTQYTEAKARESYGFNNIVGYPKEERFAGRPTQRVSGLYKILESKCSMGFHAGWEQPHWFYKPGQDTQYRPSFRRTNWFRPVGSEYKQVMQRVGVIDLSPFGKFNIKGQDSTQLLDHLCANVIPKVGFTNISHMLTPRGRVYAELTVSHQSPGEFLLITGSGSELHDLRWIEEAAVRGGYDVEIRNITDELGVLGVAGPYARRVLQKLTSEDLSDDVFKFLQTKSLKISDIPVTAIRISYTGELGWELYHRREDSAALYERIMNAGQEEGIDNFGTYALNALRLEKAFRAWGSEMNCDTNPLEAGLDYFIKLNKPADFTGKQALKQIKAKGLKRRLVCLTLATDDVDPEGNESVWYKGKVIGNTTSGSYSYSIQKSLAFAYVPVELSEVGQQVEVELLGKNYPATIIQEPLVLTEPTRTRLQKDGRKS

[3] = target: T1, 6His-hFADS2; test: spectrofluorimetric FAD synthesis assay, Dixon plot; assay type: biochemical; details: 50 mM Tris-HCl pH 7.5, 5 mM MgCl2, 37°C; product inhibition: competitive vs FMN, non-competitive vs ATP

| Structure (SMILES) | flavin fluorescence of protein band on SDS-PAGE under UV [1] | flavin fluorescence of protein band on SDS-PAGE under UV [2] | spectrofluorimetric FAD synthesis assay, Dixon plot [3] |
| --- | --- | --- | --- |
| Cc1cc2nc3c(=O)[nH]c(=O)nc-3n(C[C@H](O)[C@H](O)[C@H](O)COP(=O)(O)OP(=O)(O)OC[C@H]3O[C@@H](n4cnc5c(N)ncnc54)[C@H](O)[C@@H]3O)c2cc1C [FAD] | hFADS loses its fluorescence upon incubation with apo-Me2GlyDH | mitochondrial matrix is able to stimulate apo-Me2GlyDH flavinylation |  |
| O=P(O)(O)OP(=O)(O)O [PPi] |  |  | the inhibition by PPi against FMN is consistent with competitive inhibition |
